Experimental data published in ChEMBL document CHEMBL1201862, “PubChem BioAssay data set” (2004).
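Exposure lasted 48 hours, with cells grown in 96-well plates and compounds tested at five concentrations. GI50 marks 50% less growth.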 Calls of active or inactive are those of the source. No stated cut-off is given here; in the data, active = GI50 up to about 1.1 µM and inactive = higher. Peptide text beside a SMILES is read from it. * marks the point of attachment. Cbz = O=C(OCc1ccccc1)*

Experiments:
Assay in all cases: NCI tumour cell line growth inhibition, 48 h
NCI-H226 = system: NCI-H226
OVCAR-5 = system: OVCAR-5
PC-3 = system: PC-3
RPMI-8226 = system: RPMI-8226
HL-60 = system: HL-60
ACHN = system: ACHN
MDA-N = system: MDA-N
OVCAR-8 = system: OVCAR-8
UACC-62 = system: UACC-62
HCT-15 = system: HCT-15
KM12 = system: KM12
OVCAR-4 = system: OVCAR-4
SR = system: SR
SK-MEL-28 = system: SK-MEL-28
K562 = system: K562
SK-MEL-5 = system: SK-MEL-5
SF-268 = system: SF-268
EKVX = system: EKVX
HT-29 = system: HT-29
MOLT-4 = system: MOLT-4

| SMILES | GI50 (NCI-H226) | GI50 (OVCAR-5) | GI50 (PC-3) | GI50 (RPMI-8226) | GI50 (HL-60) | GI50 (ACHN) | GI50 (MDA-N) | GI50 (OVCAR-8) | GI50 (UACC-62) | GI50 (HCT-15) | GI50 (KM12) | GI50 (OVCAR-4) | GI50 (SR) | GI50 (SK-MEL-28) | GI50 (K562) | GI50 (SK-MEL-5) | GI50 (SF-268) | GI50 (EKVX) | GI50 (HT-29) | GI50 (MOLT-4) |
| --- | --- | --- | --- | --- | --- | --- | --- | --- | --- | --- | --- | --- | --- | --- | --- | --- | --- | --- | --- | --- |
| Cc1c(C)c(S(=O)(=O)N(CCCCCN)OCCCN)c(C)c2c1OC(C)(C)CC2 | 8.89 µM (inactive) | 24.8 µM (inactive) | 4.06 µM (inactive) | 3.6 µM (inactive) | 2.19 µM (inactive) | 17.2 µM (inactive) | 4.73 µM (inactive) | 15.6 µM (inactive) | 12.9 µM (inactive) | 18.6 µM | 2.92 µM (inactive) | 3.96 µM (inactive) | 1.61 µM (inactive) | 18.9 µM (inactive) | 5.07 µM (inactive) | 14.2 µM (inactive) | 10 µM (inactive) | 11.4 µM (inactive) | 13 µM (inactive) | 3.76 µM (inactive) |
| C[C@@H](c1ccccc1)N1C[C@@H](c2ccc3c(c2)OCO3)[C@@H]2C(=O)CCC[C@@H]21 | > 100 µM (inactive) | > 100 µM (inactive) | 59.2 µM (inactive) | 38.1 µM (inactive) | 34.1 µM (inactive) | 35.2 µM (inactive) | > 100 µM (inactive) | > 100 µM (inactive) | 25.5 µM (inactive) | 61.2 µM | 97.9 µM (inactive) | 43.8 µM (inactive) | 42.8 µM (inactive) | 28.6 µM (inactive) | 64.1 µM (inactive) | 36.8 µM (inactive) | 96.8 µM (inactive) | 69.3 µM (inactive) | 98.9 µM (inactive) | 30.3 µM (inactive) |
| CC(=O)OCC1OC(SC2=N/C(=C\c3cc4c(=O)c5ccccc5sc4s3)C(=O)N2c2ccccc2)C(OC(C)=O)C(OC(C)=O)C1OC(C)=O (stereo not given) | > 100 µM (inactive) | 62.4 µM (inactive) | > 100 µM (inactive) | 50.9 µM (inactive) | 20.1 µM (inactive) | > 100 µM (inactive) | > 100 µM (inactive) | > 100 µM (inactive) | > 100 µM (inactive) | > 100 µM | > 100 µM (inactive) | 74.3 µM (inactive) | 42.2 µM (inactive) | > 100 µM (inactive) | 53.1 µM (inactive) | > 100 µM (inactive) | > 100 µM (inactive) | 65 µM (inactive) | > 100 µM (inactive) | 20.6 µM (inactive) |
| Cc1cc(C)c(OC(=O)Nc2cccc3ccccc23)c(-c2ccccc2)c1 | 18.3 µM (inactive) | 73.8 µM (inactive) | 15.9 µM (inactive) | 22.5 µM (inactive) | 21.1 µM (inactive) | 23.7 µM (inactive) | 29 µM (inactive) | 33.6 µM (inactive) | 30.4 µM (inactive) | 34.4 µM | 28.4 µM (inactive) | 31.3 µM (inactive) | 19.6 µM (inactive) | 31.3 µM (inactive) | 41.8 µM (inactive) | 16.4 µM (inactive) | 12.6 µM (inactive) | 38.3 µM (inactive) | 43.2 µM (inactive) | 3.81 µM (inactive) |
| Nc1nc(Cl)c(Cl)c(NCC2(O)CCC2)n1 | 23.6 µM (inactive) | > 100 µM (inactive) | > 100 µM (inactive) | 42 µM (inactive) | 44 µM (inactive) | > 100 µM (inactive) | > 100 µM (inactive) | 92.9 µM (inactive) | 36.2 µM (inactive) | 38.9 µM | > 100 µM (inactive) | 19 µM (inactive) | 47.5 µM (inactive) | > 100 µM (inactive) | 24.7 µM (inactive) | 18.8 µM (inactive) | > 100 µM (inactive) | 22 µM (inactive) | > 100 µM (inactive) | 33 µM (inactive) |
| CCOC(=O)Nc1nc(-c2ccccc2)c(C)s1 | > 100 µM (inactive) | > 100 µM (inactive) | > 100 µM (inactive) | > 100 µM (inactive) | 11.1 µM (inactive) | > 100 µM (inactive) | > 100 µM (inactive) | > 100 µM (inactive) | > 100 µM (inactive) | 40.9 µM | > 100 µM (inactive) | 81.5 µM (inactive) | 49.9 µM (inactive) | > 100 µM (inactive) | 18.3 µM (inactive) | > 100 µM (inactive) | > 100 µM (inactive) | 23.7 µM (inactive) | 48.6 µM (inactive) | 7.35 µM (inactive) |
| Nc1nc(-c2ccccc2)c(CC(=O)O)s1 | > 100 µM (inactive) | > 100 µM (inactive) | > 100 µM (inactive) | > 100 µM (inactive) | 20 µM (inactive) | > 100 µM (inactive) | > 100 µM (inactive) | > 100 µM (inactive) | > 100 µM (inactive) | > 100 µM | > 100 µM (inactive) | > 100 µM (inactive) | > 100 µM (inactive) | > 100 µM (inactive) | > 100 µM (inactive) | > 100 µM (inactive) | > 100 µM (inactive) | > 100 µM (inactive) | > 100 µM (inactive) | > 100 µM (inactive) |
| CC(=O)NC1C(OCc2ccccc2)OC(CO)C(O)C1OCC(=O)N1CCCC1C(=O)NC(CCC(=O)NCCCCCNc1c2ccccc2nc2cccc([N+](=O)[O-])c12)C(N)=O (stereo not given) | 0.114 µM (active) | 0.0231 µM (active) | 0.00321 µM (active) | 0.00331 µM (active) | 0.0221 µM (active) | 0.00865 µM (active) | 0.019 µM (active) | 0.00497 µM (active) | 0.0225 µM (active) | 0.0164 µM | 0.02 µM (active) | 0.0982 µM (active) | 0.281 µM (active) | 0.0307 µM (active) | 0.00366 µM (active) | 0.00853 µM (active) | 0.0201 µM (active) | 0.148 µM (active) | 0.00125 µM (active) | 0.0561 µM (active) |
| N#C/C(C(=O)NCc1ccccc1)=C(/N)N1CCCC1 | > 100 µM (inactive) | > 100 µM (inactive) | > 100 µM (inactive) | > 100 µM (inactive) | > 100 µM (inactive) | > 100 µM (inactive) | > 100 µM (inactive) | > 100 µM (inactive) | > 100 µM (inactive) | > 100 µM | > 100 µM (inactive) | > 100 µM (inactive) | > 100 µM (inactive) | > 100 µM (inactive) | > 100 µM (inactive) | > 100 µM (inactive) | > 100 µM (inactive) | > 100 µM (inactive) | > 100 µM (inactive) | > 100 µM (inactive) |
| NCC(=O)C(O)C(O)C(O)CO (stereo not given) | > 100 µM (inactive) | > 100 µM (inactive) | > 100 µM (inactive) | > 100 µM (inactive) | > 100 µM (inactive) | > 100 µM (inactive) | > 100 µM (inactive) | > 100 µM (inactive) | > 100 µM (inactive) | > 100 µM | > 100 µM (inactive) | > 100 µM (inactive) | > 100 µM (inactive) | > 100 µM (inactive) | > 100 µM (inactive) | > 100 µM (inactive) | > 100 µM (inactive) | > 100 µM (inactive) | > 100 µM (inactive) | > 100 µM (inactive) |
| [O-][n+]1onc2c3nn(-c4ccccc4)nc3ccc21 | > 100 µM (inactive) | > 100 µM (inactive) | > 83.2 µM (inactive) | 6.32 µM (inactive) | 2.35 µM (inactive) | 88.3 µM (inactive) | > 100 µM (inactive) | > 91.4 µM (inactive) | > 86.1 µM (inactive) | 49.5 µM | 18.6 µM (inactive) | > 100 µM (inactive) | 4.43 µM (inactive) | > 100 µM (inactive) | > 100 µM (inactive) | > 100 µM (inactive) | > 86.7 µM (inactive) | > 74.8 µM (inactive) | 35.2 µM (inactive) | 5.08 µM (inactive) |
| C1CN(c2nnc(N3CCC3)nn2)C1 | > 96.6 µM (inactive) | 41.2 µM (inactive) | > 46 µM (inactive) | > 100 µM (inactive) | > 100 µM (inactive) | > 69.8 µM (inactive) | 17.3 µM (inactive) | > 100 µM (inactive) | 19.3 µM (inactive) | > 100 µM | > 89.5 µM (inactive) | 40.9 µM (inactive) | > 100 µM (inactive) | 44.5 µM (inactive) | 23.6 µM (inactive) | 25.2 µM (inactive) | 90.6 µM (inactive) | > 85.3 µM (inactive) | 35.6 µM (inactive) | > 100 µM (inactive) |
| C=C1c2nc3ccccc3n2C=C(c2ccc(C)cc2)N1c1ccc(C)cc1 | 7.08 µM (inactive) | > 100 µM (inactive) | 28.6 µM (inactive) | 21.4 µM (inactive) | 10.5 µM (inactive) | > 78 µM (inactive) | 20.6 µM (inactive) | 18.9 µM (inactive) | > 83.8 µM (inactive) | 23.8 µM | 23.8 µM (inactive) | 69.5 µM (inactive) | 11.5 µM (inactive) | > 100 µM (inactive) | 19.9 µM (inactive) | 19.8 µM (inactive) | > 100 µM (inactive) | 46.6 µM (inactive) | 37.9 µM (inactive) | 31.6 µM (inactive) |
| CCOC(=O)C(C)NC(=O)C(C)NC(=O)C(C)NC(=O)C(C)NC(=O)C(C)NC(=O)C(C)NC(=O)C(C)NC(=O)OCc1ccccc1 (stereo not given) (Cbz-AAAAAAA-OEt; configuration not given here) | > 100 µM (inactive) | > 100 µM (inactive) | > 100 µM (inactive) | > 100 µM (inactive) | > 100 µM (inactive) | > 100 µM (inactive) | > 100 µM (inactive) | > 100 µM (inactive) | > 100 µM (inactive) | > 100 µM | > 100 µM (inactive) | > 100 µM (inactive) | > 100 µM (inactive) | > 100 µM (inactive) | > 100 µM (inactive) | > 100 µM (inactive) | > 100 µM (inactive) | > 100 µM (inactive) | > 100 µM (inactive) | > 100 µM (inactive) |
